Laboratory results published in patent publication US9695155B2, “Herbicidal substituted pyrimidinyloxy benzene compounds” (E. I. DU PONT DE NEMOURS AND COMPANY, priority 2013, dated 2017).

Experiments:
wheat, winter = test: Test C preemergence; format: in vivo, Triticum aestivum; details: Triticum aestivum, pre-emergence
In short: (§1)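 Plants were kept under greenhouse conditions for 13–15 days following spray. Pre-emergent application went to soil (loam–sand), post-emergent to foliage at 1–4 leaves. Evaluation: visual, percent control against untreated checks.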

Heteranthera limosa = test: Test B flooded paddy test; format: in vivo; details: Heteranthera limosa, Flood, 250 g ai/ha; 0 to 100 scale where 0 is no effect and 100 is complete control; read-out: Plant response rating, Ducksalad
In short: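 Evaluation is visual, against untreated controls, 13 to 15 days after treatment. Before treatment, plants reached the 2-leaf stage; pots were then flooded 3 cm deep, compound was added to the water, and that level was maintained. Ratings run 0 to 100, with 100 meaning complete control.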

giant foxtail [1] = test: Test A postemergence; format: in vivo, Setaria faberii; details: Setaria faberi, post-emergence, 240 h, 0 to 100 scale where 0 is no effect and 100 is complete control
In short: (§2)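 Pre- and postemergence greenhouse screen. Soil: loam + sand. Spray carrier: solvent mixture, non-phytotoxic, with surfactant. Post timing at 1–2 leaves, height 2–10 cm. Readout: visual injury on a 0–100 scale roughly 10 days after application, untreated plants as reference.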

giant foxtail [2] = test: Test A preemergence; format: in vivo, Setaria faberii
In short: as §2

pigweed = test: Test A postemergence; format: in vivo, Amaranthus retroflexus; details: Amaranthus retroflexus, post-emergence, 0 to 100 scale where 0 is no effect and 100 is complete control
In short: as §2

Italian ryegrass [3] = test: Test C preemergence; format: in vivo, Lolium multiflorum; details: Lolium multiflorum, pre-emergence
In short: as §1

barnyardgrass [4] = test: Test C preemergence; format: in vivo, Echinochloa crus-galli; details: Echinochloa crus-galli, pre-emergence
In short: as §1

blackgrass = test: Test C preemergence; format: in vivo, Alopecurus myosuroides; details: Alopecurus myosuroides, pre-emergence
In short: as §1

velvetleaf = test: Test C preemergence; format: in vivo, Abutilon theophrasti; details: Abutilon theophrasti, pre-emergence
In short: as §1

Italian ryegrass [5] = test: Test C postemergence; format: in vivo, Lolium multiflorum
In short: as §1

johnsongrass = test: Test C postemergence; format: in vivo, Sorghum halepense; details: Sorghum halepense, post-emergence
In short: as §1

barnyardgrass [6] = test: Test A postemergence; format: in vivo, Echinochloa crus-galli; details: Echinochloa crus-galli, post-emergence, 240 h, 0 to 100 scale where 0 is no effect and 100 is complete control
In short: as §2

lambsquarters = test: Test C preemergence; format: in vivo, Chenopodium album; details: Chenopodium album, pre-emergence
In short: as §1

soybean = test: Test C postemergence; format: in vivo, Glycine max
In short: as §1

morningglory = test: Test A postemergence; format: in vivo, Ipomoea spp.; details: 0 to 100 scale where 0 is no effect and 100 is complete control
In short: as §2

[7] = 31 g ai/ha, postemergence, visual rating, scale 0 to 100 (0 no effect, 100 complete control), 13 to 15 days

Compound `FC(F)c1cccc(Oc2ncc(Cl)cn2)c1-n1cc(Br)cn1` [Compound 194, 2-[2-(4-bromo-1H-pyrazol-1-yl)-3-(difluoromethyl)phenoxy]-5-chloropyrimidine] has a plant injury at 125 g/ha (wheat, winter; 125 g ai/ha, preemergence, scale 0 (no effect) to 100 (complete control), read-out: Wheat plant response rating) of 0%, a plant injury at 250 g/ha (wheat, winter; 250 g ai/ha, preemergence, scale 0 (no effect) to 100 (complete control), read-out: Wheat plant response rating) of 35% and a plant injury at 62 g/ha (wheat, winter; Preemergence, 62 g ai/ha, scale 0 to 100, 0 no effect, 100 complete control, read-out: Plant response rating, Wheat) of 0%. The pest or weed control at 250 g/ha (Heteranthera limosa) was 98%, the pest or weed control at 125 g/ha (giant foxtail [1]; 125 g ai/ha, read-out: Foxtail, Giant plant response rating) was 90% and the pest or weed control at 500 g/ha (giant foxtail [1]; 500 g ai/ha, read-out: Plant response rating, Foxtail, Giant) was 100%. For the same compound, the “Foxtail, Giant plant response rating (0 to 100 scale)” value (giant foxtail [2]; 125 g ai/ha) was 100, the pest or weed control at 500 g/ha (giant foxtail [2]; Setaria faberi, pre-emergence, 240 h, 500 g ai/ha, 0 to 100 scale where 0 is no effect and 100 is complete control, read-out: Foxtail, Giant plant response rating) was 100% and the pest or weed control at 500 g/ha (pigweed; 500 g ai/ha, read-out: Plant response rating, Pigweed) was 100%. It also gave a pest or weed control at 125 g/ha (pigweed; 240 h, 125 g ai/ha, read-out: Pigweed plant response rating) of 100%, a pest or weed control at 125 g/ha (Italian ryegrass [3]; 125 g ai/ha, preemergence, scale 0 (no effect) to 100 (complete control), read-out: Ryegrass, Italian plant response rating) of 70% and a pest or weed control at 250 g/ha (Italian ryegrass [3]; 250 g ai/ha, preemergence, scale 0 (no effect) to 100 (complete control), read-out: Ryegrass, Italian plant response rating) of 90%. It also gave a pest or weed control at 62 g/ha (Italian ryegrass [3]; Preemergence, 62 g ai/ha, scale 0 to 100, 0 no effect, 100 complete control, read-out: Plant response rating, Ryegrass, Italian) of 20%, a pest or weed control at 125 g/ha (barnyardgrass [4]; 125 g ai/ha, preemergence, scale 0 (no effect) to 100 (complete control), read-out: Barnyardgrass plant response rating) of 100% and a pest or weed control at 250 g/ha (barnyardgrass [4]; 250 g ai/ha, preemergence, scale 0 (no effect) to 100 (complete control), read-out: Barnyardgrass plant response rating) of 100%. The pest or weed control at 62 g/ha (barnyardgrass [4]; Preemergence, 62 g ai/ha, scale 0 to 100, 0 no effect, 100 complete control, read-out: Plant response rating, Barnyardgrass) was 85%, the pest or weed control at 125 g/ha (blackgrass; 125 g ai/ha, preemergence, scale 0 (no effect) to 100 (complete control), read-out: Blackgrass plant response rating) was 90% and the pest or weed control at 250 g/ha (blackgrass; 250 g ai/ha, preemergence, scale 0 (no effect) to 100 (complete control), read-out: Blackgrass plant response rating) was 90%. It also gave a pest or weed control at 62 g/ha (blackgrass; Preemergence, 62 g ai/ha, scale 0 to 100, 0 no effect, 100 complete control, read-out: Plant response rating, Blackgrass) of 50%, a pest or weed control at 125 g/ha (velvetleaf; 125 g ai/ha, preemergence, scale 0 (no effect) to 100 (complete control), read-out: Velvetleaf plant response rating) of 100% and a pest or weed control at 250 g/ha (velvetleaf; 250 g ai/ha, preemergence, scale 0 (no effect) to 100 (complete control), read-out: Velvetleaf plant response rating) of 100%. For the same compound, the pest or weed control at 62 g/ha (velvetleaf; Preemergence, 62 g ai/ha, scale 0 to 100, 0 no effect, 100 complete control, read-out: Plant response rating, Velvetleaf) was 75%, the “Ryegrass, Italian plant response rating” value (Italian ryegrass [5]; [7]) was 0 and the pest or weed control at 125 g/ha (Italian ryegrass [5]; Lolium multiflorum, post-emergence, 125 g ai/ha, postemergence, visual rating, scale 0 to 100 (0 no effect, 100 complete control), read-out: Plant response rating, Ryegrass, Italian) was 0%. The pest or weed control at 250 g/ha (Italian ryegrass [5]; Lolium multiflorum, post-emergence, 250 g ai/ha, postemergence, read-out: Plant response rating (0 to 100), Ryegrass, Italian) was 15%, the pest or weed control at 62 g/ha (Italian ryegrass [5]; Lolium multiflorum, post-emergence, Postemergence, 62 g ai/ha, scale 0 to 100 (0 no effect, 100 complete control), 13 to 15 days, read-out: Plant response rating, Ryegrass, Italian) was 0% and the pest or weed control at 125 g/ha (johnsongrass; 125 g ai/ha, postemergence, visual rating, scale 0 to 100 (0 no effect, 100 complete control), read-out: Plant response rating, Johnsongrass) was 25%. It also gave a pest or weed control at 250 g/ha (johnsongrass; 250 g ai/ha, postemergence, read-out: Plant response rating (0 to 100), Johnsongrass) of 35%, a pest or weed control at 62 g/ha (johnsongrass; Postemergence, 62 g ai/ha, scale 0 to 100 (0 no effect, 100 complete control), 13 to 15 days, read-out: Plant response rating, Johnsongrass) of 5% and a pest or weed control at 125 g/ha (barnyardgrass [6]; 125 g ai/ha, read-out: Barnyardgrass plant response rating) of 80%. For the same compound, the pest or weed control at 500 g/ha (barnyardgrass [6]; 500 g ai/ha, read-out: Plant response rating, Barnyardgrass) was 90%, the pest or weed control at 125 g/ha (lambsquarters; 125 g ai/ha, preemergence, scale 0 (no effect) to 100 (complete control), read-out: Lambsquarters plant response rating) was 100% and the pest or weed control at 250 g/ha (lambsquarters; 250 g ai/ha, preemergence, scale 0 (no effect) to 100 (complete control), read-out: Lambsquarters plant response rating) was 100%. The pest or weed control at 62 g/ha (lambsquarters; Preemergence, 62 g ai/ha, scale 0 to 100, 0 no effect, 100 complete control, read-out: Plant response rating, Lambsquarters) was 100%, the “Soybean plant response rating” value (soybean; [7]) was 30 and the Soybean plant response rating (crop injury, 0-100 scale) at 125 g/ha (soybean; Glycine max, post-emergence, 125 g ai/ha, postemergence, visual rating, scale 0 to 100 (0 no effect, 100 complete control), read-out: Plant response rating, Soybean) was 75%. For the same compound, the Soybean plant response rating (crop injury, 0-100 scale) at 250 g/ha (soybean; Glycine max, post-emergence, 250 g ai/ha, postemergence) was 85%, the Soybean plant response rating (crop injury, 0-100 scale) at 62 g/ha (soybean; Glycine max, post-emergence, Postemergence, 62 g ai/ha, scale 0 to 100 (0 no effect, 100 complete control), 13 to 15 days) was 50% and the “Morningglory plant response rating” value (morningglory; 125 g ai/ha) was 90. It also gave a pest or weed control at 500 g/ha (morningglory; Ipomoea, post-emergence, 240 h, 500 g ai/ha, read-out: Plant response rating, Morningglory) of 100%.
